Values joined by “and” are separate entries in the source; they are usually repeats but may differ in a detail not shown here. Identical values can stand only once. Like-named read-outs stand apart in the source and are kept apart here.
Columns and labels:
[1] = biological target: T1, rat striatal homogenates (dopamine transporter) (Rattus norvegicus, UniProt P23977); experiment: In vitro binding with rat striatal homogenates using [^125 I]IPT as the ligand; settings: for Ki: [^125 I]IPT as ligand
T1 construct: from tissue; host or cells: rat striatum homogenate

[2] = Partition coefficient between 1-octanol (n-octanol) and buffer; assay type: physicochemical; settings: for Partition coefficient (P.C.), 1-octanol/pH 7.0 buffer: 1-octanol/pH 7.0 phosphate buffer
Description: (§1) Partition coefficients were measured by mixing each Tc-99m compound with 3 g each of 1-octanol and buffer (pH 7.0 or 7.4, 0.1 M phosphate) in a test tube. The test tube was vortexed for 3 minutes at room temperature, then centrifuged for 5 minutes. Two weighed samples (0.5 g each) from the 1-octanol and buffer layers were counted in a well counter. The partition coefficient was determined by calculating the ratio of cpm/g of octanol to that of buffer. Samples from the octanol layer were repartitioned until consistent partition coefficient values were obtained. The measurement was repeated 3 times.
as §1, with “The partition coefficient was measured” for “Partition coefficients were measured”, “mixing the” for “mixing each”, “3 min” for “3 minutes”

[3] = assay type: in vivo, Male Sprague-Dawley rats
Description: Male Sprague-Dawley rats (225-300 g) allowed free access to food and water were used for in vivo biodistribution studies. Kung, 1984, supra; Kung, 1985, supra. While under ether anesthesia, 0.2 mL of a saline solution containing 1.19a, 1.19b, 1.20a, 1.20b or 1.21 (50-100 μCi) was injected directly into the femoral vein of rats, and the rats were sacrificed by cardiac excision at various time points post-injection. The organs of interest were removed and weighed, and the radioactivity was counted with an automatic gamma counter (Packard 5000). The percentage dose per organ was calculated by a comparison of the tissue counts to suitably diluted aliquots of the injected material. Total activities of blood and muscle were calculated under the assumption that they were 7% and 40% of the total body weight, respectively.
(§2) The major criteria for determining the potential usefulness of in vivo dopamine transporter imaging agents are based on an animal biodistribution study. In this case, rats were used as an animal model. After an intravenous injection of the Tc-99m labeled compounds, the values of initial brain uptake (% dose/whole organ) at 2 minutes post intravenous injection are used to measure the ability to penetrate the intact blood-brain barrier. Compounds displaying higher brain uptake are the better agents (minimum requirement >0.1% dose in brain). The second criteria is the specific uptake in the striatum region of the brain, where dopamine transporters are located. The uptake value (% dose/gram) of the striatum (ST) is divided by the background area, cerebellum (CB; essentially devoid of dopamine transporter); the ratio of ST/CB is an indicator for specific uptake (minimum requirement for ST/CB >1.5). Five structurally similar tropane derivatives were examined in this biological study. (Tables 1.1 to 1.4).
Male Sprague-Dawley rats (225-300 g) that were allowed free access to food and water were used for in vivo biodistribution studies. (Kung, 1984, supra; Kung, 1985, supra). While under halothane anesthesia, 0.2 mL of a saline solution containing 3.24 to 3.34 ([…]) was injected directly into the femoral vein of rats, and they were sacrificed by cardiac excision at various time points post-injection. The organs of interest were removed and weighed, and the radioactivity was counted with an automatic gamma counter (Packard 5000). The percentage dose per organ was calculated by a comparison of the tissue counts to suitably diluted aliquots of the injected material. Total activities of blood and muscle were calculated under the assumption that they were 7% and 40% of the total body weight, respectively.

dopamine transporters [4] = biological target: T2, dopamine transporters (Rattus norvegicus, UniProt P23977); assay type: in vivo, Male Sprague-Dawley rats; settings: rats, iv
Description: For dopamine transporter imaging agents, the target area of the brain is the striatum, where dopamine transporters are highly concentrated. The cerebellum region is suitable for use as the background region, because it has no dopamine transporters. The specific uptake is measured by the ratio of % dose/gram of striatum divided by % dose/gram of cerebellum (ST/CB ratio)--the higher the value, the better the specific uptake, and the more promising as a dopamine transporter imaging agent.
(§3) Regional brain distribution in rats was obtained after an injection of 1.19a, 1.19b, 1.20a, 1.20b or 1.21. Samples from different brain regions (cortex, striatum, hippocampus, and cerebellum) were dissected, weighed and counted, and the percentage dose per gram of sample was calculated by comparing the sample counts with the count of the diluted initial dose. The uptake ratio of each region was obtained by dividing the percentage dose per gram of that region by that of the cerebellum. For blocking studies, rats were injected with either β-CIT or haloperidol (iv, 1 mg/Kg) 5 min prior to injection of 1.19a. The rats were dissected and brain tissue samples were counted as described above. The specific uptake of the compound was expressed as ratio of ST/CB (% dose/g of striatum divided by the same of cerebellum).
as §2
as §3, with “3.24 to 3.34.” for “1.19a, 1.19b, 1.20a, 1.20b or 1.21.”, “3.25.” for “1.19a.”, “above.” for “above. The specific uptake of the compound was expressed as ratio of ST/CB (% dose/g of striatum divided by the same of cerebellum).”

dopamine transporters [5] = biological target: T2, dopamine transporters; experiment: In vitro autoradiography of rat brain sections; assay type: binding, Male Sprague-Dawley rats; settings: rat brain coronal sections
Description: Male Sprague-Dawley rats ([…]) were sacrificed by decapitation, and the brains were removed, placed in OTC embedding medium (Miles Laboratory, Elkhart, Ind.) frozen in powdered dry ice. After equilibration to -15° C., 20 μm coronal sections were sliced on a cryostat (Hacker Instruments, Fairfield, N.J.), thaw mounted onto gelatin-coated slides, desiccated at 4° C. for 3 hours and kept at -70° C. until use. Prior to the experiment, the slides were dried at room temperature and preincubated for 30 minutes in buffer containing 50 mM Tris-HCl (pH 7.4, 120 mM NaCl). The slides were then incubated for 2 hours in preincubation buffer and the [^99m Tc] compound 3.25 (385,000 cpm/200 μL) in a coplan jar, washed for 1 hour in cold Tris buffer, with one change of buffer, dipped in ice-cold water to remove buffer salts and allowed to dry at room temperature. Nonspecific binding was determined in the presence of 1 μM IPT. These slides were simultaneously exposed to DuPont x-ray film in an autoradiographic cassette for 18 hours. The exposed film was developed with a Kodak automatic film processor.

dopamine transporters [6] = settings: cited from earlier work

T2 sequence (P23977 whole entry): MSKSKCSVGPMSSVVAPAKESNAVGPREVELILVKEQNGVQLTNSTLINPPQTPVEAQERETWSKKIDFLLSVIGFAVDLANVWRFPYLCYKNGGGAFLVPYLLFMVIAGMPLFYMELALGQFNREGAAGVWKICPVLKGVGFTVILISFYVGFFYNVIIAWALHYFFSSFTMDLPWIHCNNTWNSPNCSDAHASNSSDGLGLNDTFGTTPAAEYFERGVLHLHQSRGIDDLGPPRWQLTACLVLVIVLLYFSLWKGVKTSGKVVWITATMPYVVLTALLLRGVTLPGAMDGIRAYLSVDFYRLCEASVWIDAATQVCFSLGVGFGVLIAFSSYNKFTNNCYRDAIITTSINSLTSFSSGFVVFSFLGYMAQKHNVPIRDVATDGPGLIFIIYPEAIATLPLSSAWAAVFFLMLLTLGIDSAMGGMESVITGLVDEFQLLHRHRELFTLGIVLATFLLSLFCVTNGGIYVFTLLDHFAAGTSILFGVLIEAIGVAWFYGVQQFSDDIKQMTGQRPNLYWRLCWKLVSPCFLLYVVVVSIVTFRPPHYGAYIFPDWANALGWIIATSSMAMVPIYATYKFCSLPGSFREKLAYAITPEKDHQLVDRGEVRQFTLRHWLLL
T1 sequence (P23977 whole entry): as above

Compound | Ki [1] | Partition coefficient (P.C.), 1-octanol/pH 7.0 buffer [2] | Brain uptake, 2 min ([3]; rats, iv, 2 min) | Brain uptake, 60 min ([3]; rats, iv) | ST/CB ratio, 60 min (dopamine transporters [4]) | further results
2b-{oxo[N,N'-bis-(2'-mercaptoethyl)-ethylenediaminato)]rhenium (V)-methylamino}-3b-(4-chlorophenyl)tropane [Compound 1.22] | 14 nM | – | – | – | – | –
CN1[C@H]2CC[C@@H]1[C@@H](CN(CCS)CCNCCS)[C@@H](c1ccc(Cl)cc1)C2 [Compound 1.16a] | 7 nM | – | – | – | – | –
CN1[C@H]2CC[C@@H]1[C@@H](C(=O)[N+]13CC[S][99Tc-]14(=[O])[S]CC[N]4CC3)[C@@H](c1ccc(Cl)cc1)C2 (stereo partly shown) [Compound 1.19b] | – | 230 | 0.39 ± 0.12 % dose/organ | 0.11 ± 0.02 % dose/organ | 2.78 and 2.78 ± 0.32 | Brain uptake, 30 min ([3]; rats, iv): 0.21 ± 0.03 % dose/organ; ST/CB ratio, 30 min (dopamine transporters [4]): 2.78
CN1[C@H]2CC[C@@H]1[C@@H](C[N+]13CC[S][99Tc-]14(=[O])[S]CC[N]4CC3)[C@@H](c1ccc(F)cc1)C2 (stereo partly shown) [Compound 1.20a] | – | 99-1818 and 99 | 0.37 ± 0.09 % dose/organ | 0.098 ± 0.014 % dose/organ | 2.18 and 2.18 ± 0.32 | –
CN1[C@H]2CC[C@@H]1[C@@H](C(=O)[N+]13CC[S][99Tc-]14(=[O])[S]CC[N]4CC3)[C@@H](c1ccc(F)cc1)C2 (stereo partly shown) [Compound 1.20b] | – | 99-1818 and 104 | 0.31 ± 0.09 % dose/organ | 0.07 ± 0.010 % dose/organ | 1.92 and 1.92 ± 0.28 | –
CN1[C@H]2CC[C@@H]1[C@@H](C[N+]13CC[S][99Tc-]14(=[O])[S]CC[N]4C(=O)C3)[C@@H](c1ccc(Cl)cc1)C2 (stereo partly shown) [Compound 1.21] | – | 1818 | 0.11 ± 0.02 % dose/organ | – | 1.17 ± 0.010 | Partition coefficient / lipophilicity, comparison in words [2]: almost tenfold higher partition coefficient; Brain uptake, 60 min, footnote c ([3]; data from rats sacrificed at 30 minutes): 0.07 ± 0.014 % dose/organ; Brain uptake lower than 1.19a and 1.19b ([3]; rats, iv, 2 min): at least 300%; Brain uptake, 30 min ([3]; rats, iv): 0.070 ± 0.014 % dose/organ; Brain uptake and specific striatal uptake, in words (dopamine transporters [4]): lowest brain uptake; ST/CB ratio, 30 min (dopamine transporters [4]): 1.17; ST/CB ratio, 60 min (dopamine transporters [4]; listed as 21): 1.17
COC(=O)[C@H]1[C@@H](c2ccc(Cl)cc2)C[C@@H]2CC[C@H]1N2CC[S][Re-]12(=[O])[S]CC[N+]1(C)CC[S]2 (stereo partly shown) [Compound 3.23] | 0.3 nM | – | – | – | – | –
COC(=O)[C@H]1[C@@H](c2ccc(Cl)cc2)C[C@@H]2CC[C@H]1N2CC=CI [IPT, N-(3-iodopropen-2-yl)-2β-carbomethoxy-3β-(4-chlorophenyl)tropane, reference compound] | – | – | – | – | – | Kd ([1]; data not shown, read-out: Kd of the radioligand [^125 I]IPT): 0.2 nM; Autoradiographic regional labeling (dopamine transporters [5]): almost identical regional labeling pattern; Time for reaching optimal uptake ratio / equilibrium (dopamine transporters [6]; basal ganglia versus frontal cortex): less than one hour; Literature binding / localization / biodistribution, in words (dopamine transporters [6]; in vivo): much higher binding affinity and selectivity to dopamine reuptake sites
